The text below walks through data of article PMC6426897, “Inhibition of NLRP3 inflammasome activation by cell-permeable stapled peptides” (Scientific Reports, 2019).

Molecules are shown by their SMILES. Where a SMILES comes first, the peptide text is derived from it. Bridges are numbered along the chain shown (N, C = ends). [ ]: non-standard residue; d: D form. R8 = C=CCCCCCC[C@@](C)(N)C(=O)O; S5 = C=CCCC[C@](C)(N)C(=O)O

Series [1] has as its system NLRP3 inflammasome. Briefly: IL-18 secretion from LPS-primed primary human monocytes upon ATP stimulation (ELISA). In kind it is cell-based. As to conditions: human blood monocytes, LPS 0.1 μg/ml 4 h, ATP 30 min; 25, 50 and 100 μM; Fig. 8B. Here is the method: (§1) Human monocytic THP-1 cells (1 × 10^7 cells) were plated in a 10-cm tissue culture dish and treated with PMA (200 nM) overnight to differentiate monocytic cells into macrophages. Cells were then washed and allowed to rest in fresh media for another day. For stimulation, differentiated THP-1 cells were trypsinized and seeded in 96-well plates (2 × 10^6/well). Peripheral blood mononuclear cells were isolated by Ficoll-Hypaque density gradient centrifugation from buffy coats obtained from anonymous donors provided by the National University Hospital Blood Bank, Singapore. Isolation of monocytes was performed using negative selection with the Monocyte Isolation Kit II (Miltenyi Biotech), following the manufacturer’s instructions. Monocytes were plated in tissue culture non-treated 96-well plates (2.5 × 10^5/well) in 250 µl RPMI 1640-Glutamax media supplemented with 3% human AB serum (Gemini Bio Products). […]
(§2) IL-1β levels were measured using antibodies from eBioscience (cat. #14-7018-81 and #13-7016-85), following the manufacturer’s instructions. IL-18 levels were measured using antibodies from MBL (D044-3 and D045-6) following the manufacturer’s instructions. The absorbance was measured at 450 nm with the reference wavelength at 570 nm, using an M200 Infinite plate reader (Tecan).
For orientation: An ELISA detects its analyte on a solid surface through an enzyme-linked reagent.

The next series deals with ASC. Briefly: Imaging of ASC speck oligomerization in THP-1 cells. It counts as cell-based, human. The note with it: THP-1, LPS 0.1 μg/ml 4 h, nigericin 10 μM 1 h; 100 μM peptide; Fig. 8E. The protocol: Figure 8 ASC peptides effectively block IL-1β and IL-18 release and ASC oligomerization in human blood monocytes. (A) IL-1β and IL-18 were measured in cell-free supernatants from THP-1 cells incubated with FAM-ASC^PYD #5 or FAM-ASC^PYD #6 (12.5, 25,50 and 100 μM) for 24 h and primed with LPS (0.1 μg/ml, 4 h) followed by stimulation with nigericin (10 μM, 1 h), as assessed by ELISA. (B) Production of IL-1β and IL-18 from human blood monocytes stimulated or not with LPS (0.1 μg/ml, 4 h) alone or in a combination of ATP (5 mM, 30 min) in the presence of FAM-ASC^PYD #5 or FAM-ASC^PYD #6 (25, 50 and 100 μM) peptides. (C,D) Western blot analysis of processed IL-1β p17 (C) and Casp-1 p20 (D) in cell-free supernatants of THP-1 cells primed with LPS (0.1 μg/ml, 4 h), followed by stimulation with nigericin (10 μM, 1 h) in the presence of FAM-ASC^PYD #5 (25, 50 and 100 μM), FAM-ASC^PYD #6 (50 and 100 μM) peptides, or DMSO vehicle. Expression of pro-IL-1β p35 and pro-Casp-1 p50 was assessed in cell lysates. GAPDH was used as loading control. (E) Imaging of ASC speck oligomerization in THP-1 cells treated with LPS (0.1 μg/ml, 4 h) and nigericin (10 μM, 1 h) in the absence or presence of FAM-ASC^PYD #5 or FAM-ASC^PYD #6 (100 μM) peptides. The number of ASC specks were counted manually in at least 100 cells, and the proportion of cells containing a speck was shown. […]

Series [2] can be described thus: Circular dichroism, percentage of helicity (K2D3). In kind it is physicochemical. As to conditions: CD, room temperature, water, 100 μM peptide; estimated with K2D3. From the text: The conformation of helix 2 (^16TAEELKKFKLKLLSV^30) bound to ASC^PYD (Fig. 1A) was used as the starting structure for the peptide-protein interaction modeling. Following I,I + 7 stapling scheme, we inserted a hydrocarbon staple across positions 5 and 12 along the peptide and then introduced mutations to produce a set of stapled peptides. Two variants of the template peptide were designed – a short version containing 13 residues (ms_ASC^PYD #6) and a long version containing 15 residues (ms_ASC^PYD #1–5) with two additional residues at the N-terminus (Table 1). These two additional residues were inserted to increase the length of the peptide, thus potentially enabling sufficient conformational flexibility for the region involving the critical Arg3 to remain helical. A similar approach was taken to introduce the staple in the ms_NLRP3^PYD peptide. As determined from Circular Dichroism (CD) spectra, inserting the I,I + 7 staple had the intended effect of increasing helicity of the peptides (Fig. 3). […] Percentage of helicity was much higher for ASC^PYD stapled peptides #5 and #6, 95% and 70% respectively at 100 μM peptide concentration. Percentage of helicity for the peptides were estimated from the web server K2D3[36] using CD data.
Figure 3 Circular dichroism (CD) spectra of (A) NLRP3^PYD and (B) ASC^PYD peptides to measure secondary structures.

The subject of series [3] is NLRP3 inflammasome. The experiment in a line: IL-1β secretion from LPS-primed primary human monocytes upon ATP stimulation (ELISA). As to conditions: human blood monocytes, LPS 0.1 μg/ml 4 h, ATP 30 min; 25, 50 and 100 μM; Fig. 8B. It counts as cell-based. Here is the method:
as §1, §2

For the molecule `CC[C@H](C)[C@@H]1NC(=O)[C@H](CCCCN)NC(=O)[C@H](C)NC(=O)[C@H](CC(C)C)NC(=O)[C@H](CCCCN)NC(=O)[C@](C)(NC(=O)[C@H](C)NC(=O)[C@H](CCCNC(=N)N)NC(=O)[C@H](C)NC(=O)[C@@H](NC(C)=O)[C@@H](C)O)CCCCCCC=CCCC[C@@](C)(C(=O)N[C@@H](CCC(=O)O)C(=O)N[C@@H](CO)C(=O)N[C@H](C(N)=O)C(C)C)NC(=O)[C@H](CCCCN)NC1=O` [ms_ASC^PYD #5] (Ac-TARA[R8]KLAKIK[S5]ESV-NH2; staple 5-12), the “IL-18 secretion (in words)” value in the series on NLRP3 inflammasome [1] is on record as “effectively inhibited”. Also, the ASC speck formation result in the series with ASC is recorded as “significantly inhibited speck formation”. Moreover, the Percentage of helicity in series [2] is 95%. Besides, the “IL-1β secretion (in words)” value with NLRP3 inflammasome [3] was “effectively inhibited”.
With `CC[C@H](C)[C@@H]1NC(=O)[C@H](CCCCN)NC(=O)[C@H](C)NC(=O)[C@H](CCCCN)NC(=O)[C@H](CCCCN)NC(=O)[C@](C)(NC(=O)[C@H](C)NC(=O)[C@H](CCCNC(=N)N)NC(C)=O)CCCCCCC=CCCC[C@@](C)(C(=O)N[C@@H](CCC(=O)O)C(=O)N[C@@H](CO)C(=O)N[C@H](C(N)=O)C(C)C)NC(=O)[C@H](CCCCN)NC1=O` [ms_ASC^PYD #6] (Ac-RA[R8]KKAKIK[S5]ESV-NH2; staple 3-10), the “IL-18 secretion (in words)” value in the series on NLRP3 inflammasome [1] is listed as “effectively inhibited”. Further, in the series with ASC, the ASC speck formation entry is given as “significantly inhibited speck formation”. In series [2], the Percentage of helicity is 70%. Moreover, the “IL-1β secretion (in words)” value in the series with NLRP3 inflammasome [3] is given as “effectively inhibited”.
